Where “and” joins values, the source holds several entries; their conditions need not be identical. Equal entries are not always repeated. One block for each compound: values may come before it.
How the values were obtained:
Torenia FMT (TFMT) [1] = assay: HPLC assay of methyltransferase activity, E. coli extract containing pCGP3090; format: biochemical, Torenia hybrida; settings: for product of flavonoid methyltransferase activity with the substrate: Torenia FMT in pCGP3090, to a lesser degree petunidin; for % of anthocyanidin detected cya / % of anthocyanidin detected peo / % of anthocyanidin detected del / % of anthocyanidin detected mal / % of anthocyanidin detected pet: pCGP3090 (TFMT), percentage of total anthocyanidins
Method: (§1) The assay reactions were incubated at 30° C. for 30 minutes. Fifty microlitres of a chloroform mix (CHCl3:methanol/1% HCl, 2:1) was added and the mixture was then vortexed to stop the reactions. The phases were separated by centrifugation at 13,000 rpm for 5 minutes and 50 μL of the upper phase was transferred into a clean tube and the contents subsequently hydrolysed by the addition of 12.5 μL of 10M HCl. The tube was then placed in a boiling waterbath for 30 minutes and the contents subsequently desiccated under vacuum. The residue was resuspended in 2-3 μL of methanol/1% HCl and spotted onto a TLC plate alongside standard samples of petunidin, malvidin and delphinidin. The anthocyanidins were separated in a Forestal system (HOAc:water:HCl; 30:10:3) (Markham, Techniques of flavonoid identification, Academic Press, London, 1982) and the TLC was exposed to an autoradiographic film (Kodak) for 16 hours at −70° C.
(§2) Anthocyanidins in the reaction mixture were analysed by HPLC via gradient elution using gradient conditions of 50% B to 60% B over 10 minutes, then 60% B for 10 minutes and finally 60% B to 100% B over 5 minutes where solvent A consisted of TFA:H2O (5:995) and solvent B consisted of acetonitrile:TFA:H2O (500:5:495). An Asahi Pac ODP-50 cartridge column (250 mm×4.6 mm ID) was used for the reversed phase chromatographic separations. […].
(§3) The enzyme activities of the peptides encoded by Petunia and Torenia FMT cDNA clones in pCGP3086 and pCGP3090, respectively were further assessed using the substrates delphinidin 3-glucoside and delphinidin 3-rutinoside and delphinidin 3,5-diglucoside under assay conditions as previously described (Table 15, Example 9) except that the ^14C-labelled SAM was replaced with non radioactive SAM at 2 mg/mL and the substrates (delphinidin 3-glucoside and delphinidin 3-rutinoside and delphinidin 3,5-diglucoside) at 2 mg/mL.

Petunia FMT (E20) [2] = assay: HPLC assay of methyltransferase activity, E. coli extract containing pCGP3086; format: biochemical, Petunia hybrida; settings: for product of flavonoid methyltransferase activity with the substrate: Petunia FMT (E20) in pCGP3086, to a lesser degree malvidin; for % of anthocyanidin detected peo / % of anthocyanidin detected cya / % of anthocyanidin detected del / % of anthocyanidin detected mal / % of anthocyanidin detected pet: pCGP3086 (PFMT), percentage of total anthocyanidins
Method: as §1, §2, §3

[3] = Reconstruction experiments: anthocyanins added to petal juice of Medeo roses; format: physicochemical, Rosa hybrida
Method: The rose cultivar Medeo generally produces cream-colored to pale apricot flowers (RHSCC 158C to 159A). […] The estimated vacuolar pH of Medeo petals is around 4.6. The petal juice of Medeo roses was extracted by grinding one petal with 50 μL of water using a mortar and pestle. The petal juice was collected and mixed with 10-20 μL of 1-2 mg/g delphinidin 3-glucoside, delphinidin 3,5-diglucoside and malvidin 3,5-diglucoside. The colors observed were described according to the Royal Horticultural Society Color Charts (RHSCC) (The Royal Horticultural Society, London) (Table 8).

Petunia FMT (E20) [4] = assay: Methyltransferase assay (14C-SAM, TLC) of crude homogenate of E. coli containing pCGP3086; format: biochemical, Petunia hybrida; parameters: key to Petunidin (product on TLC) / Malvidin (product on TLC): yes = detection of product on TLC; no = no reaction observed as determined by absence of product
Method: 10 mLs of LB containing ampicillin at 100 μg/mL and kanamycin at 25 μg/mL. (LB/Amp100+Kan25) were inoculated with a single colony of pCGP3086 or pQE30 in M15 (pREP4) cells. […] IPTG was then added to a final concentration of 1 mM and the culture was further incubated at 30° C. with shaking for 8 hours. The cells were pelleted by centrifugation at 3500 rpm for 10 minutes at 4° C. The pellet was resuspended in 1 mL of 0.1 M NaPi, pH 7.5, 4 mM MgCl2. […] The mixture was then sonicated for two bursts of 10 seconds at output 2-3 and then incubated on ice for 30 minutes. The cell debris was pelleted by centrifugation at 14,000 rpm for 20 minutes at 4° C. The supernatant was passed through a NAP-10 column (Pharmacia) and 1.5 mL of the sample collected in 0.1 M NaPi, pH 7.5, 4 mM MgCl2. […] (1983), supra. Methyltransferase assays were set up according to Table 10 in a total reaction volume of 50 μL. […] The assay reactions were incubated at 30° C. for 30 minutes. Fifty microlitres of a chloroform mix (CHCl3:methanol/1% HCl, 2:1) was added and the mixture was then vortexed to stop the reactions. […] The tube was then placed in a boiling waterbath for 30 minutes and the contents subsequently desiccated under vacuum.

Torenia FMT (TFMT) [5] = assay: Methyltransferase assay (14C-SAM, TLC) of crude homogenate of E. coli containing pCGP3090; format: biochemical, Torenia hybrida; parameters: key to Petunidin (product on TLC) / Malvidin (product on TLC): yes = detection of product on TLC; no = no reaction observed as determined by absence of product
Method: as §1
The confirmation of recombinant protein expression and preparation of crude protein extracts and subsequent determination of methyltransferase activity were as described for the analysis of the Petunia E20 cDNA clone (PFMT) (described above in Example 7).
The enzyme activities of the protein encoded by the Torenia FMT cDNA clone in pCGP3090 along with that of the Petunia FMT (E20) clone in pCGP3086 were assessed using the substrates delphinidin 3-glucoside and delphinidin 3-rutinoside under assay conditions as described in Jonsson et al. (1983), supra and in Example 7 of this specification.
Methyltransferase assays were set up according to Table 15 in a total reaction volume of 50 μL.
Reaction conditions were as described previously (Example 7).

[6] = duplicate a/b, listed as D3, 5G
[7] = pCGP3090, substrate 2 mg/mL, SAM 2 mg/mL, duplicate a/b
[8] = pCGP3090, substrate 2 mg/mL, SAM 2 mg/mL, duplicate a/b, listed as D3, 5G
[9] = pCGP3086, substrate 2 mg/mL, SAM 2 mg/mL, duplicate a/b
[10] = pCGP3086 crude homogenate + 14C-SAM (Table 16, positive control)
[11] = pCGP3086 crude homogenate + 14C-SAM, 30° C., 30 minutes (Table 11)
[12] = pCGP3090 crude homogenate + 14C-SAM (Table 16)

COLOR ([3]; pH 4.6): violet
RHSCC# ([3]; pH 4.6): 88A
COLOR ([3]; pH 4.9): violet
RHSCC# ([3]; pH 4.9): 88A
Structure (SMILES): OC[C@H]1O[C@@H](Oc2cc3c(O[C@@H]4O[C@H](CO)[C@@H](O)[C@H](O)[C@H]4O)cc(O)cc3[o+]c2-c2cc(O)c(O)c(O)c2)[C@H](O)[C@@H](O)[C@@H]1O [D35G, delphinidin 3,5-diglucoside]
product of flavonoid methyltransferase activity with the substrate (Torenia FMT (TFMT) [1]): predominantly malvidin
Predominant FMT Activity (Torenia FMT (TFMT) [1]; pCGP3090): 3′5′FMT
% of anthocyanidin detected cya (Torenia FMT (TFMT) [1]; duplicate a/b): 0.0%
% of anthocyanidin detected peo (Torenia FMT (TFMT) [1]; duplicate a/b): 0.0%
% of anthocyanidin detected del (Torenia FMT (TFMT) [1]; [6]): 22.9% and 28.9%
% of anthocyanidin detected mal (Torenia FMT (TFMT) [1]; [6]): 70.0% and 66.9%
% of anthocyanidin detected pet (Torenia FMT (TFMT) [1]; [6]): 7.1% and 4.3%
Anthocyanidins (mg/g) Cya (Torenia FMT (TFMT) [1]; [7]): 0 mg/g
Anthocyanidins (mg/g) Peo (Torenia FMT (TFMT) [1]; [7]): 0 mg/g
Anthocyanidins (mg/g) Mal (Torenia FMT (TFMT) [1]; [8]): 7.3 mg/g and 12.4 mg/g
Anthocyanidins (mg/g) Pet (Torenia FMT (TFMT) [1]; [8]): 0.7 mg/g and 0.8 mg/g
product of flavonoid methyltransferase activity with the substrate (Petunia FMT (E20) [2]): predominantly petunidin
Predominant FMT Activity (Petunia FMT (E20) [2]; pCGP3086): 3′FMT
% of anthocyanidin detected peo (Petunia FMT (E20) [2]; duplicate a/b): 0.0%
% of anthocyanidin detected cya (Petunia FMT (E20) [2]; [6]): 0.0% and 2.2%
% of anthocyanidin detected del (Petunia FMT (E20) [2]; [6]): 45.6% and 55.9%
% of anthocyanidin detected mal (Petunia FMT (E20) [2]; [6]): 11.0% and 6.0%
% of anthocyanidin detected pet (Petunia FMT (E20) [2]; [6]): 43.4% and 35.9%
Anthocyanidins (mg/g) Peo (Petunia FMT (E20) [2]; [9]): 0 mg/g
Anthocyanidins (mg/g) Mal (Petunia FMT (E20) [2]; pCGP3086, substrate 2 mg/mL, SAM 2 mg/mL, duplicate a/b, listed as D3, 5G): 0.7 mg/g and 1.1 mg/g

COLOR ([3]; pH 4.9): red-purple
RHSCC# ([3]; pH 4.9): 74A
Structure (SMILES): OC[C@H]1O[C@@H](Oc2cc3c(O)cc(O)cc3[o+]c2-c2cc(O)c(O)c(O)c2)[C@H](O)[C@@H](O)[C@@H]1O [D3G, delphinidin 3-glucoside]
Petunidin and malvidin, the methylated derivatives of delphinidin, in assay reactions (Petunia FMT (E20) [4]; crude homogenates from pCGP3086 cells, 14C-SAM): detected
Malvidin (product on TLC) (Petunia FMT (E20) [4]; [10]): yes
Petunidin (product on TLC) (Petunia FMT (E20) [4]; [10]): yes
Malvidin (product on TLC) (Petunia FMT (E20) [4]; [11]): yes
Petunidin (product on TLC) (Petunia FMT (E20) [4]; [11]): yes
product of flavonoid methyltransferase activity with the substrate (Torenia FMT (TFMT) [1]): predominantly malvidin
Predominant FMT Activity (Torenia FMT (TFMT) [1]; pCGP3090): 3′5′FMT
% of anthocyanidin detected cya (Torenia FMT (TFMT) [1]; duplicate a/b): 4.5% and 3.6%
% of anthocyanidin detected del (Torenia FMT (TFMT) [1]; duplicate a/b): 7.8%
% of anthocyanidin detected mal (Torenia FMT (TFMT) [1]; duplicate a/b): 74.0% and 75.2%
% of anthocyanidin detected peo (Torenia FMT (TFMT) [1]; duplicate a/b): 8.5% and 8.0%
% of anthocyanidin detected pet (Torenia FMT (TFMT) [1]; duplicate a/b): 5.1% and 5.4%
Anthocyanidins (mg/g) Cya (Torenia FMT (TFMT) [1]; [7]): 1.0 mg/g and 0.9 mg/g
Anthocyanidins (mg/g) Del (Torenia FMT (TFMT) [1]; [7]): 1.8 mg/g and 1.9 mg/g
Anthocyanidins (mg/g) Mal (Torenia FMT (TFMT) [1]; [7]): 17.1 mg/g and 18.1 mg/g
Anthocyanidins (mg/g) Peo (Torenia FMT (TFMT) [1]; [7]): 2.0 mg/g and 1.9 mg/g
Anthocyanidins (mg/g) Pet (Torenia FMT (TFMT) [1]; [7]): 1.2 mg/g and 1.3 mg/g
product of flavonoid methyltransferase activity with the substrate (Petunia FMT (E20) [2]): predominantly petunidin
Predominant FMT Activity (Petunia FMT (E20) [2]; pCGP3086): 3′FMT
% of anthocyanidin detected cya (Petunia FMT (E20) [2]; duplicate a/b): 11.8% and 9.7%
% of anthocyanidin detected del (Petunia FMT (E20) [2]; duplicate a/b): 35.5% and 31.4%
% of anthocyanidin detected mal (Petunia FMT (E20) [2]; duplicate a/b): 6.0% and 6.5%
% of anthocyanidin detected peo (Petunia FMT (E20) [2]; duplicate a/b): 2.7% and 3.0%
% of anthocyanidin detected pet (Petunia FMT (E20) [2]; duplicate a/b): 44.0% and 49.4%
Anthocyanidins (mg/g) Cya (Petunia FMT (E20) [2]; [9]): 2.4 mg/g and 2.0 mg/g
Anthocyanidins (mg/g) Del (Petunia FMT (E20) [2]; [9]): 7.1 mg/g and 6.4 mg/g
Anthocyanidins (mg/g) Mal (Petunia FMT (E20) [2]; [9]): 1.2 mg/g and 1.3 mg/g
Anthocyanidins (mg/g) Peo (Petunia FMT (E20) [2]; [9]): 0.5 mg/g and 0.6 mg/g
Anthocyanidins (mg/g) Pet (Petunia FMT (E20) [2]; [9]): 8.8 mg/g and 10.0 mg/g
Petunidin and malvidin, the methylated derivatives of delphinidin, in assay reactions (Torenia FMT (TFMT) [5]; crude homogenates from pCGP3090 (containing TFMT), 14C-SAM): detected
Malvidin (product on TLC) (Torenia FMT (TFMT) [5]; [12]): yes
Petunidin (product on TLC) (Torenia FMT (TFMT) [5]; [12]): yes
